Results as given in patent US8729082B2, “Substituted imidazoquinoxalines” (Bayer Intellectual Property GmbH, priority 2009, dated 2014).

The compounds below were run against T1, human kinase Mps-1 (Homo sapiens, UniProt P33981) (assay: Mps-1 kinase assay (HTRF)). Conditions: lowATP; mean; read-out: Mps1 lowATP mean IC50.
T1 construct: N-terminally GST-tagged human full length recombinant Mps-1 kinase; purchased Invitrogen, Karslruhe, Germany PV4071
T1 sequence (P33981 1-857): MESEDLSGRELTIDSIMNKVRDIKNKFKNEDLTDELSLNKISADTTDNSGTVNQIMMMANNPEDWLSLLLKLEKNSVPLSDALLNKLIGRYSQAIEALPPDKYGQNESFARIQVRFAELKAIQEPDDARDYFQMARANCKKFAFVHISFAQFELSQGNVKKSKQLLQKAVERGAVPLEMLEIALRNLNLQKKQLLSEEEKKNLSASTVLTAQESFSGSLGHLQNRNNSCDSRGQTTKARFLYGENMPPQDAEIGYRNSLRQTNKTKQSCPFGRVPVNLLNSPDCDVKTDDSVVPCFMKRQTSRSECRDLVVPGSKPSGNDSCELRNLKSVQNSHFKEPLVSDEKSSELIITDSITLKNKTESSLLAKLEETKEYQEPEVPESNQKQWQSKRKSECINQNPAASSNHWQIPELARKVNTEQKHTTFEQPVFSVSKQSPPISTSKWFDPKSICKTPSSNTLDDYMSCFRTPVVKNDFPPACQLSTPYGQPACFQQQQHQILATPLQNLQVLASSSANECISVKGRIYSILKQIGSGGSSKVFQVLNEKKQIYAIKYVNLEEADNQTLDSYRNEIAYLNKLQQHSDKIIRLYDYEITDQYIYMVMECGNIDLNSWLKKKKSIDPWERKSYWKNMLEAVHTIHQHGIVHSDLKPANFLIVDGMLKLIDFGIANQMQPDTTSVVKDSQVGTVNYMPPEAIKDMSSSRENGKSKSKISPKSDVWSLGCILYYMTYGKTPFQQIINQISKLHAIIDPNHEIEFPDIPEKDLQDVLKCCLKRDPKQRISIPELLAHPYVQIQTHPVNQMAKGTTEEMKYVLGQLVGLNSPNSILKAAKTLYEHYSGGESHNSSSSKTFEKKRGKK
Assay type: biochemical
Procedure, shortened: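 HTRF readout: EDTA-stopped reactions incubated 1 h with europium anti-phospho(Ser/Thr) antibody and streptavidin-XLent, emission ratio 665/620 nm after 350 nm excitation. Kinase step: compound pre-bound 15 min to ~1 nM GST-Mps-1, then 60 min at 22 °C with ATP and biotin-peptide substrate; inhibition scaled between no-inhibitor (0%) and no-enzyme (100%) controls.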

Row | IC50 | SMILES
1 | 0.367 µM | CC(C)CNc1nc2ccccc2n2c(-c3ccc(C(=O)NC4CC4)c(Cl)c3)cnc12 [Example 1-47, 2-chloro-N-cyclopropyl-4-{4-[(2-methylpropyl)amino]imidazo[1,2-a]quinoxalin-1-yl}benzamide]
2 | 8.18 µM | CC(C)CNc1nc2ccccc2n2c(-c3ccccc3)cnc12 [Example 1-6, N-(2-methylpropyl)-1-phenylimidazo[1,2-a]quinoxalin-4-amine]
3 | 0.0598 µM | CCNc1nc2cc(F)c(F)cc2n2c(-c3ccc(C(=O)NC4CC4)cc3)cnc12 [Example 2-99, N-cyclopropyl-4-[4-(ethylamino)-7,8-difluoroimidazo[1,2-a]quinoxalin-1-yl]benzamide]
4 | 11.8 µM | CNC(=O)Nc1ccc(-c2cnc3c(NCCNC(C)=O)nc4ccc(F)cc4n23)cc1 [Example 2-66, N-{2-[(8-fluoro-1-{4-[(methylcarbamoyl)amino]phenyl}imidazo[1,2-a]quinoxalin-4-yl)amino]ethyl}acetamide]
5 | 11.9 µM | CC(C)CNc1nc2ccccc2n2c(-c3ccc(C(=O)NCCN4CCNC4=O)cc3)cnc12 [Example 3-18, 4-{4-[(2-methylpropyl)amino]imidazo[1,2-a]quinoxalin-1-yl}-N-[2-(2-oxoimidazolidin-1-yl)ethyl]benzamide]
6 | 0.255 µM | COCCNc1nc2ccc(F)cc2n2c(-c3ccc(C(=O)NC4CC4)cc3)cnc12 [Example 2-45, N-cyclopropyl-4-{8-fluoro-4-[(2-methoxyethyl)amino]imidazo[1,2-a]quinoxalin-1-yl}benzamide]
7 | 0.325 µM | O=C(NC1CC1)c1ccc(-c2cnc3c(NCCCN4CCCC4=O)nc4ccc(F)cc4n23)cc1 [Example 2-44, N-cyclopropyl-4-(8-fluoro-4-{[3-(2-oxopyrrolidin-1-yl)propyl]amino}imidazo[1,2-a]quinoxalin-1-yl)benzamide]
8 | 0.00222 µM | Cc1cc2nc(NCC(C)C)c3ncc(-c4ccc(C(=O)NC5CC5)cc4)n3c2cc1C [Example 2-154, N-cyclopropyl-4-{7,8-dimethyl-4-[(2-methylpropyl)amino]imidazo[1,2-a]quinoxalin-1-yl}benzamide]
9 | 5.08 µM | CNC(=O)Nc1ccc(-c2cnc3c(NCc4ccco4)nc4ccc(F)cc4n23)cc1 [Example 2-70, 1-(4-{8-fluoro-4-[(furan-2-ylmethyl)amino]imidazo[1,2-a]quinoxalin-1-yl}phenyl)-3-methylurea]
10 | 0.349 µM | CC(C)CNc1nc2ccccc2n2c(-c3ccc(C(=O)Nc4cccc(NC(=O)c5ccncc5)c4)cc3)cnc12 [Example 3-27, N-{3-[(4-{4-[(2-methylpropyl)amino]imidazo[1,2-a]quinoxalin-1-yl}benzoyl)amino]phenyl}pyridine-4-carboxamide]
11 | 0.00283 µM | Cc1cc2nc(NCCCCO)c3ncc(-c4ccc(C(=O)NC5CC5)cc4)n3c2cc1C [Example 2-146, N-cyclopropyl-4-{4-[(4-hydroxybutyl)amino]-7,8-dimethylimidazo[1,2-a]quinoxalin-1-yl}benzamide]
12 | 0.0675 µM | O=C(NC1CC1)c1ccc(-c2cnc3c(NCc4ccccc4)nc4ccccc4n23)cc1 [Example 2-16, 4-[4-(benzylamino)imidazo[1,2-a]quinoxalin-1-yl]-N-cyclopropylbenzamide]
13 | 0.296 µM | O=C(NC1CC1)c1ccc(-c2cnc3c(NCCCN4CCCC4=O)nc4ccccc4n23)cc1 [Example 2-11, N-cyclopropyl-4-(4-{[3-(2-oxopyrrolidin-1-yl)propyl]amino}imidazo[1,2-a]quinoxalin-1-yl)benzamide]
14 | 19.4 µM | CC(C)CNc1nc2ccccc2n2c(-c3ccc(C(=O)Nc4ccccc4C(N)=O)cc3)cnc12 [Example 3-11, N-(2-carbamoylphenyl)-4-{4-[(2-methylpropyl)amino]imidazo[1,2-a]quinoxalin-1-yl}benzamide]
15 | 0.00956 µM | CC(C)CNc1nc2cc(C#N)ccc2n2c(-c3ccc(C(=O)NC4CC4)cc3)cnc12 [Example 2-216, 4-{7-cyano-4-[(2-methylpropyl)amino]imidazo[1,2-a]quinoxalin-1-yl}-N-cyclopropylbenzamide]
16 | 0.0045 µM | CCNc1nc2cc(C)c(C)cc2n2c(-c3ccc(C(=O)NC4CC4)cc3)cnc12 [Example 2-147, N-cyclopropyl-4-[4-(ethylamino)-7,8-dimethylimidazo[1,2-a]quinoxalin-1-yl]benzamide]

Row | IC50 | SMILES
17 | 0.222 µM | O=C(NC1CC1)c1ccc(-c2cnc3c(NCc4cccc(Cl)c4)nc4ccccc4n23)cc1 [Example 2-7, 4-{4-[(3-chlorobenzyl)amino]imidazo[1,2-a]quinoxalin-1-yl}-N-cyclopropylbenzamide]
18 | 0.744 µM | CN(C)CCCNc1nc2ccccc2n2c(-c3ccc(C(=O)NC4CC4)cc3)cnc12 [Example 2-20, N-cyclopropyl-4-(4-{[3-(dimethylamino)propyl]amino}imidazo[1,2-a]quinoxalin-1-yl)benzamide]
19 | 16 µM | CCCNc1nc2cc(F)c(F)cc2n2c(-c3ccc(NC(=O)NC)cc3)cnc12 [Example 2-114, 1-{4-[7,8-difluoro-4-(propylamino)imidazo[1,2-a]quinoxalin-1-yl]phenyl}-3-methylurea]
20 | 0.0753 µM | O=C(NC1CC1)c1ccc(-c2cnc3c(NCCCO)nc4cc(F)c(F)cc4n23)cc1 [Example 2-100, N-cyclopropyl-4-{7,8-difluoro-4-[(3-hydroxypropyl)amino]imidazo[1,2-a]quinoxalin-1-yl}benzamide]
21 | 5.54 µM | COc1ncc(-c2cnc3c(NCC(C)C)nc4ccccc4n23)cn1 [Example 1-12, 1-(2-methoxypyrimidin-5-yl)-N-(2-methylpropyl)imidazo[1,2-a]quinoxalin-4-amine]
22 | 16.3 µM | CC(C)CNc1nc2ccccc2n2c(-c3cccc(F)c3F)cnc12 [Example 1-31, 1-(2,3-difluorophenyl)-N-(2-methylpropyl)imidazo[1,2-a]quinoxalin-4-amine]
23 | 0.506 µM | CCCCNc1nc2cc(C#N)ccc2n2c(-c3ccc(C(=O)NC4CC4)c(Cl)c3)cnc12 [Example 2-243, 4-[4-(butylamino)-7-cyanoimidazo[1,2-a]quinoxalin-1-yl]-2-chloro-N-cyclopropylbenzamide]
24 | 6.05 µM | Cc1ccc(-c2cnc3c(NCC(C)C)nc4ccccc4n23)s1 [Example 1-38, N-(2-methylpropyl)-1-(5-methylthiophen-2-yl)imidazo[1,2-a]quinoxalin-4-amine]
25 | 4.53 µM | CC(C)CNc1nc2ccccc2n2c(-c3ccc4[nH]ncc4c3)cnc12 [Example 1-48, 1-(1H-indazol-5-yl)-N-(2-methylpropyl)imidazo[1,2-a]quinoxalin-4-amine]
26 | 0.163 µM | CCCNc1nc2cc(C)c(C)cc2n2c(-c3ccc(NC(=O)NC)cc3)cnc12 [Example 2-159, 1-{4-[7,8-dimethyl-4-(propylamino)imidazo[1,2-a]quinoxalin-1-yl]phenyl}-3-methylurea]
27 | 0.413 µM | N#Cc1ccc2c(c1)nc(NCCCN1CCOCC1)c1ncc(-c3ccc(C(=O)NC4CC4)cc3)n12 [Example 2-205, 4-(7-cyano-4-{[3-(morpholin-4-yl)propyl]amino}imidazo[1,2-a]quinoxalin-1-yl)-N-cyclopropylbenzamide]
28 | 0.0329 µM | N#Cc1ccc2c(c1)nc(NCCCO)c1ncc(-c3ccc(C(=O)NC4CC4)cc3)n12 [Example 2-211, 4-{7-cyano-4-[(3-hydroxypropyl)amino]imidazo[1,2-a]quinoxalin-1-yl}-N-cyclopropylbenzamide]
29 | 0.134 µM | CCNC(=O)c1ccc(-c2cnc3c(NCC(C)C)nc4ccccc4n23)cc1 [Example 3-8, N-ethyl-4-{4-[(2-methylpropyl)amino]imidazo[1,2-a]quinoxalin-1-yl}benzamide]
30 | 3.29 µM | CNC(=O)Nc1ccc(-c2cnc3c(NCCC(C)C)nc4cc(C#N)ccc4n23)cc1 [Example 2-224, 1-(4-{7-cyano-4-[(3-methylbutyl)amino]imidazo[1,2-a]quinoxalin-1-yl}phenyl)-3-methylurea]
31 | 6.7 µM | CNC(=O)Nc1ccc(-c2cnc3c(NCc4ccccn4)nc4cc(F)c(F)cc4n23)cc1 [Example 2-121, 1-(4-{7,8-difluoro-4-[(pyridin-2-ylmethyl)amino]imidazo[1,2-a]quinoxalin-1-yl}phenyl)-3-methylurea]
32 | 3.78 µM | N#Cc1ccc2c(c1)nc(NCCCO)c1ncc(-c3ccc(C(=O)NC4CC4)c(Cl)c3)n12 [Example 2-242, 2-chloro-4-{7-cyano-4-[(3-hydroxypropyl)amino]imidazo[1,2-a]quinoxalin-1-yl}-N-cyclopropylbenzamide]
